Experimental data taken from patent US5859257A, “Isoxazole compounds as cyclooxygenase inhibitors” (G. D. Searle & Co., priority 1996, dated 1999).

Legend:
[1] = target: COX-1; assay: Evaluation of COX-1 activity in vitro (PGE2 ELISA, recombinant enzyme); assay type: biochemical, human or murine; details: arachidonic acid 10 μM, pH 8.0, pre-incubation 10-20 minutes
Method: (§1) a. Preparation of recombinant COX baculoviruses
(§2) Recombinant COX-1 and COX-2 were prepared as scribed by Gierse et al, [J. Biochem., 305, 479-84 (1995)]. […] Recombinant baculoviruses were isolated by transfecting 4 μg of baculovirus transfer vector DNA into SF9 insect cells (2×10^8) along with 200 ng of linearized baculovirus plasmid DNA by the calcium phosphate method. See M. D. Summers and G. E. Smith, A Manual of Methods for Baculovirus Vectors and Insect Cell Culture Procedures, Texas Agric. Exp. Station Bull. 1555 (1987). Recombinant viruses were purified by three rounds of plaque purification and high titer (10^7 -10^8 pfu/mL) stocks of virus were prepared. For large scale production, SF9 insect cells were infected in 10 liter fermentors (0.5×10^6 /mL) with the recombinant baculovirus stock such that the multiplicity of infection was 0.1. After 72 hours the cells were centrifuged and the cell pellet homogenized in Tris/Sucrose (50 mM: 25%, pH 8.0) containing 1% 3-[(3-cholamidopropyl)dimethylammonio]-1-propanesulfonate (CHAPS). The nomogenate was centrifuged at 10,000×G for 30 minutes, and the resultant supernatant was stored at -80° C. before being assayed for COX activity.
(§3) COX activity was assayed as PGE2 formed/μg protein/time using an ELISA to detect the prostaglandin released. CHAPS-solubilized insect cell membranes containing the appropriate COX enzyme were incubated in a potassium phosphate buffer (50 mM, pH 8.0) containing epinephrine, phenol, and heme with the addition of arachidonic acid (10 μM). […] Any reaction between the arachidonic acid and the enzyme was stopped after ten minutes at 37° C./room temperature by transferring 40 μl of reaction mix into 160 μl ELISA buffer and 25 μM indomethacin. The PGE2 formed was measured by standard ELISA technology (Cayman Chemical).

[2] = target: COX-2; assay: Evaluation of COX-2 activity in vitro (PGE2 ELISA, recombinant enzyme); assay type: biochemical, human or murine; details: arachidonic acid 10 μM, pH 8.0, pre-incubation 10-20 minutes
Method: The COX-2 inhibition activity of the compounds of this invention illustrated in the Examples was determined by the following methods.
as §1, §2, §3

| SMILES | IC50 [1] | IC50 [2] |
| --- | --- | --- |
| CCc1onc(-c2ccccc2)c1-c1ccc(S(N)(=O)=O)cc1 [Example 1a, 4-[5-ethyl-3-phenylisoxazol-4-yl]benzenesulfonamide] | 17.4 µM | < 0.1 µM |
| CCCc1onc(-c2ccccc2)c1-c1ccc(S(N)(=O)=O)cc1 [Example 1b, 4-[5-propyl-3-phenylisoxazol-4-yl]benzenesulfonamide] | 13.2 µM | < 0.1 µM |
| CC(C)c1onc(-c2ccccc2)c1-c1ccc(S(N)(=O)=O)cc1 [Example 1c, 4-[5-isopropyl-3-phenylisoxazol-4-yl]benzenesulfonamide] | 6.2 µM | < 0.1 µM |
| CCCCc1onc(-c2ccccc2)c1-c1ccc(S(N)(=O)=O)cc1 [Example 1d, 4-[5-butyl-3-phenylisoxazol-4-yl]benzenesulfonamide] | 25.8 µM | < 0.1 µM |
| CC(C)Cc1onc(-c2ccccc2)c1-c1ccc(S(N)(=O)=O)cc1 [Example 1e, 4-[5-isobutyl-3-phenylisoxazol-4-yl]benzenesulfonamide] | 37.7 µM | < 0.1 µM |
| NS(=O)(=O)c1ccc(-c2c(-c3ccccc3)noc2C2CCCCC2)cc1 [Example 1f, 4-[5-cyclohexyl-3-phenylisoxazol-4-yl]benzenesulfonamide] | 54 µM | – |
| CC(C)(C)Cc1onc(-c2ccccc2)c1-c1ccc(S(N)(=O)=O)cc1 [Example 1g, 4-[5-neopentyl-3-phenylisoxazol-4-yl]benzenesulfonamide] | > 100 µM | < 0.1 µM |
| NS(=O)(=O)c1ccc(-c2c(-c3ccccc3)noc2CC2CCCCC2)cc1 [Example 1h, 4-[5-cyclohexylmethyl-3-phenylisoxazol-4-yl]benzenesulfonamide] | 4.7 µM | < 0.1 µM |
| NS(=O)(=O)c1ccc(-c2c(-c3ccccc3)noc2Cc2ccc(Cl)cc2)cc1 [Example 1i, 4-[5-(4-chlorophenyl)methyl-3-phenylisoxazol-4-yl]benzenesulfonamide] | 8.6 µM | < 0.1 µM |
| NS(=O)(=O)c1ccc(-c2c(-c3ccccc3)noc2CCl)cc1 [Example 1k, 4-[5-chloromethyl-3-phenylisoxazol-4-yl]benzenesulfonamide] | 50.7 µM | < 0.1 µM |
| Cc1onc(-c2ccccc2)c1-c1ccc(S(=O)(=O)O)cc1 [Example 1l, 4-[5-methyl-3-phenylisoxazol-4-yl]benzenesulfonic acid] | > 100 µM | 1.5 µM |
| CCCc1onc(-c2ccccc2)c1-c1ccc(S(=O)(=O)O)cc1 [Example 1m, 4-[5-propyl-3-phenylisoxazol-4-yl]benzenesulfonic acid] | > 100 µM | 51 µM |
| COCc1onc(-c2ccccc2)c1-c1ccc(S(N)(=O)=O)cc1 [Example 1n, 4-[5-methoxymethyl-3-phenylisoxazol-4-yl]benzenesulfonamide] | > 100 µM | < 0.1 µM |
| NS(=O)(=O)c1ccc(-c2c(-c3ccccc3)noc2CCCO)cc1 [Example 1o, 4-[5-(3-hydroxypropyl)-3-phenylisoxazol-4-yl]benzenesulfonamide] | > 100 µM | 0.1 µM |
| COc1ccc(-c2noc(C)c2-c2ccc(S(N)(=O)=O)cc2)cc1F [Example 4, 4-[3-(3-Fluoro-4-methoxyphenyl)-5-methylisoxazol-4-yl]benzenesulfonamide] | > 100 µM | 3 µM |
| Cc1onc(-c2ccc(Cl)cc2)c1-c1ccc(S(N)(=O)=O)cc1 [Example 4a, 4-[3-(4-chlorophenyl)-5-methyl-isoxazol-4-yl]benzenesulfonamide] | 90.5 µM | < 0.1 µM |
| Cc1onc(-c2ccc(F)cc2)c1-c1ccc(S(N)(=O)=O)cc1 [Example 4b, 4-[3-(4-fluorophenyl)-5-methyl-isoxazol-4-yl]benzenesulfonamide] | > 100 µM | < 0.1 µM |
| Cc1ccc(-c2noc(C)c2-c2ccc(S(N)(=O)=O)cc2)cc1F [Example 4c, 4-[3-(3-fluoro-4-methylphenyl)-5-methyl-isoxazol-4-yl]benzenesulfonamide] | 66.5 µM | < 0.1 µM |
| Cc1ccc(-c2noc(C)c2-c2ccc(S(N)(=O)=O)cc2)cc1Cl [Example 4d, 4-[3-(3-chloro-4-methylphenyl)-5-methyl-isoxazol-4-yl]benzenesulfonamide] | 44 µM | < 0.1 µM |
| Cc1onc(-c2cccnc2)c1-c1ccc(S(N)(=O)=O)cc1 [Example 4e, 4-[5-methyl-3-(3-pyridyl)isoxazol-4-yl]benzenesulfonamide] | > 100 µM | 2 µM |

| SMILES | IC50 [1] | IC50 [2] |
| --- | --- | --- |
| Cc1onc(-c2ccncc2)c1-c1ccc(S(N)(=O)=O)cc1 [Example 4f, 4-[5-methyl-3-(4-pyridyl)-isoxazol-4-yl]benzenesulfonamide] | > 100 µM | > 100 µM |
| Cc1onc(-c2ccccc2)c1-c1ccc(S(C)(=O)=O)cc1 [Example 5, 5-Methyl-4-[4-(methylsulfonyl)phenyl]-3-phenylisoxazole] | > 100 µM | 4 µM |
| COc1ccc(-c2noc(CC(=O)O)c2-c2ccc(S(C)(=O)=O)cc2)cc1F [Example 6, [3-[3-Fluoro-4-methoxyphenyl]-4-[4-(methylsulfonyl)phenyl]isoxazol-5-yl]acetic acid] | > 100 µM | 35.7 µM |
| COc1ccc(-c2noc(C)c2-c2ccc(S(C)(=O)=O)cc2)cc1Cl [Example 7, 3-(3-Chloro-4-methoxyphenyl)-5-methyl-4-[4-methylsulfonylphenyl]isoxazole] | > 100 µM | 86.7 µM |
| CS(=O)(=O)c1ccc(-c2c(-c3ccccc3)noc2CC(=O)O)cc1 [Example 8, [4-[4-(methylsulfonyl)phenyl]-3-phenylisoxazol-5-yl]acetic acid] | > 100 µM | > 100 µM |
| NS(=O)(=O)c1ccc(-c2c(-c3ccccc3)noc2CC(=O)O)cc1 [Example 9, [4-[4-(Aminosulfonyl)phenyl]-3-phenylisoxazol-5-yl]acetic acid] | > 100 µM | – |
| NS(=O)(=O)c1ccc(-c2c(-c3ccccc3)noc2C(=O)O)cc1 [Example 11, [4-[4-(Aminosulfonyl)phenyl]-3-phenylisoxazol-5-yl]carboxylic acid] | – | 35 µM |
| NS(=O)(=O)c1ccc(-c2c(-c3ccccc3)noc2O)cc1 [Example 12, 4-[5-Hydroxy-3-phenylisoxazol-4-yl]benzenesulfonamide] | > 100 µM | 2.5 µM |
| Cc1noc(-c2ccccc2)c1-c1ccc(S(N)(=O)=O)cc1 [Example 13, 4-[3-Methyl-5-phenylisoxazol-4-yl]benzenesulfonamide] | 6.4 µM | – |
| CC(C)c1noc(-c2ccccc2)c1-c1ccc(S(N)(=O)=O)cc1 [Example 15, 4-[3-isopropyl-5-phenylisoxazol-4-yl]benzenesulfonamide] | 59 µM | 0.1 µM |
| CCCc1noc(-c2ccccc2)c1-c1ccc(S(N)(=O)=O)cc1 [Example 16, 4-[5-Phenyl-3-propylisoxazol-4-yl]benzenesulfonamide] | > 100 µM | 3.1 µM |
| CCc1noc(-c2ccc(C)cc2)c1-c1ccc(S(N)(=O)=O)cc1 [Example 17, 4-[3-Ethyl-5-(4-methylphenyl)isoxazol-4-yl]benzenesulfonamide] | > 100 µM | 2.1 µM |
| CCCCc1noc(-c2ccccc2)c1-c1ccc(S(N)(=O)=O)cc1 [Example 18, 4-[3-Butyl-5-phenylisoxazol-4-yl]benzenesulfonamide] | > 100 µM | 0.6 µM |
| Cc1ccc(-c2onc(C)c2-c2ccc(S(N)(=O)=O)cc2)cc1 [Example 19, 4-[3-Methyl-5-(4-methylphenyl)isoxazol-4-yl]benzenesulfonamide] | > 100 µM | 8.7 µM |
| Cc1noc(-c2ccc(Cl)cc2)c1-c1ccc(S(N)(=O)=O)cc1 [Example 20, 4-[5-(4-chlorophenyl)-3-methylisoxazol-4-yl]benzenesulfonamide] | > 100 µM | 4.7 µM |
| Cc1noc(-c2ccc(F)cc2)c1-c1ccc(S(N)(=O)=O)cc1 [Example 21, 4-[5-(4-fluorophenyl)-3-methylisoxazol-4-yl]benzenesulfonamide] | > 100 µM | 5.2 µM |
| Cc1noc(-c2ccc(S(C)(=O)=O)cc2)c1-c1ccccc1 [Example 22, 3-Methyl-5-(4-methylsulfonylphenyl)-4-phenylisoxazole] | > 100 µM | 5.3 µM |
| CCc1noc(-c2ccccc2)c1-c1ccc(S(C)(=O)=O)cc1 [Example 29, 3-Ethyl-4-(4-methylsulfonylphenyl)-5-phenylisoxazole] | > 100 µM | – |
| CCc1noc(-c2cccc(C)c2)c1-c1ccc(S(N)(=O)=O)cc1 [Example 32, 4-[3-Ethyl-5-(3-methylphenyl)isoxazol-4-yl]benzenesulfonamide] | 76 µM | – |
| Cc1onc(-c2ccc(F)c(F)c2)c1-c1ccc(S(N)(=O)=O)cc1 [Example 49, 4-[3-(3,4-Difluorophenyl)-5-methylisoxazol-4-yl]benzenesulfonamide] | > 100 µM | – |
